Assay results published in ChEMBL document CHEMBL3870343, “Synthesis, screening and docking analysis of hispolon analogs as potential antitubercular agents” (2017).
In brackets after ≈: the same amount, converted by molar mass.

Assays:
Format in all cases: functional
[1] = tested on: Mycobacterium tuberculosis; assay: Antitubercular activity against Mycobacterium tuberculosis H37Rv ATCC 27294 after 5 days by micro plate alamar blue assay; conditions: H37Rv ATCC 27294, 120 h
[2] = tested on: Mycobacterium tuberculosis; assay: Antitubercular activity against Mycobacterium tuberculosis H37Rv ATCC 27294 assessed as ratio of compound or streptomycin MIC to MIC for compound in presence of streptomycin after 5 days by micro plate alamar blue assay
[3] = tested on: Mycobacterium tuberculosis; assay: Antitubercular activity against Mycobacterium tuberculosis H37Rv ATCC 27294 assessed as ratio of compound or ciprofloxacin MIC to MIC for compound in presence of ciprofloxacin after 5 days by micro plate alamar blue assay
[4] = tested on: Mycobacterium tuberculosis; assay: Antitubercular activity against Mycobacterium tuberculosis H37Rv ATCC 27294 assessed as ratio of compound or rifampicin MIC to MIC for compound in presence of rifampicin after 5 days by micro plate alamar blue assay
[5] = tested on: Mycobacterium tuberculosis; assay: Antitubercular activity against Mycobacterium tuberculosis H37Rv ATCC 27294 assessed as ratio of compound or pyrazinamide MIC to MIC for compound in presence of pyrazinamide after 5 days by micro plate alamar blue assay

Row | Structure (SMILES) | MIC [1] [µg/mL] | also measured
1 | CC(=O)CC(=O)/C=C/c1ccc(O)c(O)c1 | 25 (≈ 114 µM) | –
2 | COc1cc(CCC(=O)CC(C)=O)ccc1O | 6.25 (≈ 26.5 µM) | –
3 | COc1cc(/C=C/C(=O)CC(C)=O)ccc1O | 25 (≈ 107 µM) | –
4 | CC(=O)CC(=O)/C=C/c1ccc(O)cc1 | 25 (≈ 122 µM) | Ratio [2]: 0.125; Ratio [3]: 0.062; Ratio [4]: 0.062; Ratio [5]: 0.25
5 | COc1ccc(/C=C/C(=O)CC(C)=O)cc1OC | 100 (≈ 403 µM) | –
6 | COc1ccc(/C=C/C(=O)CC(C)=O)cc1 | 50 (≈ 229 µM) | –
7 | CC(=O)CC(=O)CCc1ccc(O)cc1 | 1.6 (≈ 7.76 µM) | Ratio [2]: 0.25; Ratio [3]: 0.031; Ratio [4]: 0.062; Ratio [5]: 0.25
8 | COc1ccc(CCC(=O)CC(C)=O)cc1 | 25 (≈ 113 µM) | –
9 | COc1ccc(CCC(=O)CC(C)=O)cc1OC | 100 (≈ 400 µM) | –
10 | COc1ccc(CCC(=O)CC(C)=O)c(OC)c1OC | > 100 | –
11 | COc1ccc(/C=C/C(=O)CC(C)=O)c(OC)c1OC | 100 (≈ 359 µM) | –
12 | CC(=O)CC(=O)CCc1ccc(O)c(O)c1 | 3.12 (≈ 14.1 µM) | –
13 | COc1cc(/C=C/C(=O)CC(C)=O)ccc1OC(C)=O | > 100 | –
14 | COc1cc(/C=C/C(=O)CC(C)=O)cc(OC)c1OC | 50 (≈ 180 µM) | –
15 | COc1cc(/C=C/C(=O)CC(C)=O)cc(OC)c1OC(C)=O | > 100 | –
16 | COc1cc(CCC(=O)CC(C)=O)cc(OC)c1O | 12.5 (≈ 46.9 µM) | –
17 | CC(=O)CC(=O)/C=C/c1ccc(OC(C)=O)cc1 | 100 (≈ 406 µM) | –
18 | COc1cc(/C=C/C(=O)CC(C)=O)cc(OC)c1O | 50 (≈ 189 µM) | –
19 | COc1cc(CCC(=O)CC(C)=O)cc(OC)c1OC(C)=O | 100 (≈ 324 µM) | –
20 | COc1cc(OC)c(/C=C/C(=O)CC(C)=O)c(OC)c1 | 100 (≈ 359 µM) | –
21 | O=C(O)c1cn(C2CC2)c2cc(N3CCNCC3)c(F)cc2c1=O [CIPROFLOXACIN] | 3.12 (≈ 9.43 µM) | –
22 | COc1cc(/C=C/C(=O)CC(=O)/C=C/c2ccc(O)c(OC)c2)ccc1O [CURCUMIN] | > 100 | –
23 | CC[C@@H](CO)NCCN[C@@H](CC)CO [ETHAMBUTOL] | 1.6 (≈ 7.83 µM) | –
24 | NNC(=O)c1ccncc1 [ISONIAZID] | 0.8 (≈ 5.83 µM) | –
25 | NC(=O)c1cnccn1 [PYRAZINAMIDE] | 3.12 (≈ 25.4 µM) | –
26 | CO[C@H]1/C=C/O[C@@]2(C)Oc3c(C)c(O)c4c(O)c(c(/C=N/N5CCN(C)CC5)c(O)c4c3C2=O)NC(=O)/C(C)=C\C=C\[C@H](C)[C@H](O)[C@@H](C)[C@@H](O)[C@@H](C)[C@H](OC(C)=O)[C@@H]1C [RIFAMPIN] | 1.6 (≈ 1.94 µM) | –
27 | CN[C@@H]1[C@H](O[C@H]2[C@H](O[C@H]3[C@H](O)[C@@H](O)[C@H](N=C(N)N)[C@@H](O)[C@@H]3N=C(N)N)O[C@@H](C)[C@]2(O)C=O)O[C@@H](CO)[C@H](O)[C@H]1O [STREPTOMYCIN] | 6.25 (≈ 10.7 µM) | –
28 | C=C/C(C)=C/[C@@]1(C)SC(=O)C(C)=C1O [THIOLACTOMYCIN] | 12.5 (≈ 59.4 µM) | –
